We go through two molecules from patent publication US20250282779A1, “SUBSTITUTED 5,6,7,8-TETRAHYDROPYRIDO[2,3-D]PYRIMIDINE-2,4-DIONES FOR TREATING CARDIAC DISEASES” (MYOKARDIA, INC., priority 2018, published 2025).

In data set [1] the target is T1, bovine cardiac myosin (Bos taurus (Bovine), UniProt Q9BE39). The experiment in a line: Myosin inhibition assay (bcMF pCa 6 IC50). In kind it is biochemical. The conditions noted are these: bovine cardiac myofibrils, calcium giving 50% activation. As to the method: Myosin inhibition assay (bcMF pCa 6IC50 (μM))
T1 sequence (Q9BE39 whole entry): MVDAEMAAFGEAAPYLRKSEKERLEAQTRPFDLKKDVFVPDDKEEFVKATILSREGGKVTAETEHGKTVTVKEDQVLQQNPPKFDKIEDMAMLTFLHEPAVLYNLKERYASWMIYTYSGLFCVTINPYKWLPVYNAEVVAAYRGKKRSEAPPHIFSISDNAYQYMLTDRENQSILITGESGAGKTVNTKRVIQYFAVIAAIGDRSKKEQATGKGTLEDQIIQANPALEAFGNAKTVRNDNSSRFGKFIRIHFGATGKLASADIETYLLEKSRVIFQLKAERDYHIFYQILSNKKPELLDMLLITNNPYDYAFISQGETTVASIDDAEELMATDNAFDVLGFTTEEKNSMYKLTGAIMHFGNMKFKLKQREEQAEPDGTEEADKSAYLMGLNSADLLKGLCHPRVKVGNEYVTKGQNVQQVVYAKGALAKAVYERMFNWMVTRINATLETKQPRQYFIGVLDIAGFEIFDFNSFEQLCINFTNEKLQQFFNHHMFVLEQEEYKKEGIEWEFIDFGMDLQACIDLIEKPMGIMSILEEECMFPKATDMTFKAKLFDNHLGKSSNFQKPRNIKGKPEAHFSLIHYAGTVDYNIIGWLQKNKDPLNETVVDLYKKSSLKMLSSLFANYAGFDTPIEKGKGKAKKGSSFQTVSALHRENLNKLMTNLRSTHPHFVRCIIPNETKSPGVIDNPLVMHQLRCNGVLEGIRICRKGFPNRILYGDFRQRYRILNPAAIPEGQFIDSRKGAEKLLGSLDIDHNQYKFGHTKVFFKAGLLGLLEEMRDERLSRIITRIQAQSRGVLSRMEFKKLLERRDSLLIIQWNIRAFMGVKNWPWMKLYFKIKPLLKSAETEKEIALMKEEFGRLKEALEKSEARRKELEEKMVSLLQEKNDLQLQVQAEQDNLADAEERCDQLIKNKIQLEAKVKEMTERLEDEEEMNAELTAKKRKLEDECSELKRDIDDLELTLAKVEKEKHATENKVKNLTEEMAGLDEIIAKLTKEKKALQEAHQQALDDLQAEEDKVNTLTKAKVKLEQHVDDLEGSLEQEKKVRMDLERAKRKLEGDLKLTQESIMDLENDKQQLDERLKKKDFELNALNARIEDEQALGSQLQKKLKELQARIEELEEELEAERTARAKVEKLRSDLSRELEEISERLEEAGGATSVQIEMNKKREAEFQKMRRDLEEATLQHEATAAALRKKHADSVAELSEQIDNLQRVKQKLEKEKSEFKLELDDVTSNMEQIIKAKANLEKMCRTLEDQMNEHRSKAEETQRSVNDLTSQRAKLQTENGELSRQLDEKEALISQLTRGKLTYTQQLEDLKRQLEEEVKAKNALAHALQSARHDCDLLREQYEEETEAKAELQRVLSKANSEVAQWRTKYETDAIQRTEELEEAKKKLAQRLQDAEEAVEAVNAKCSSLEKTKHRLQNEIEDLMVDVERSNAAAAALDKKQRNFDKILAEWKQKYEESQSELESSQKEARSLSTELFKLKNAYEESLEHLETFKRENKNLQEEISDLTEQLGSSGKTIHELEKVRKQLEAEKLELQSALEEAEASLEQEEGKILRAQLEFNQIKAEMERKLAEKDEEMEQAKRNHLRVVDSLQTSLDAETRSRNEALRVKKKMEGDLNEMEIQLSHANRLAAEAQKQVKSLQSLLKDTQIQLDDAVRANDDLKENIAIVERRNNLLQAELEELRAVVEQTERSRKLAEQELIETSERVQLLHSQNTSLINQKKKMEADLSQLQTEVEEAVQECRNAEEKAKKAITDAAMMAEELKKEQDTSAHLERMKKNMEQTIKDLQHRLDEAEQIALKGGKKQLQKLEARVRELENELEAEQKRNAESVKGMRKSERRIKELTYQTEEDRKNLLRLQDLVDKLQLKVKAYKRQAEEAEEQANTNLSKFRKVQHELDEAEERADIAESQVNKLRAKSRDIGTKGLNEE
T1 sequence (P85100 whole entry partner): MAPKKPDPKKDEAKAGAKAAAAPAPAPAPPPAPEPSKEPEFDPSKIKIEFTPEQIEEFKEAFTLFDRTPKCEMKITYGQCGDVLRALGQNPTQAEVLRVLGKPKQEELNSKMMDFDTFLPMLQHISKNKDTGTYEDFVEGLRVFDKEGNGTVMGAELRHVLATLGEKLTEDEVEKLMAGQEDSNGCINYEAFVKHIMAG
T1 sequence (Q3SZE5 whole entry partner): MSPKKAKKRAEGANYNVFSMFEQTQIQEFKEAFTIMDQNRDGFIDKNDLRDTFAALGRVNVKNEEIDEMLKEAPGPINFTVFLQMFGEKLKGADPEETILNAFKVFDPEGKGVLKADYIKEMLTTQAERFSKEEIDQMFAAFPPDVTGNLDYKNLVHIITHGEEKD
Small molecule agents were assessed for their ability to inhibit the enzymatic activity of bovine cardiac myosin using a biochemical assay that couples the release of ADP (adenosine diphosphate) from cardiac myosin to an enzymatic coupling system consisting of pyruvate kinase and lactate dehydrogenase (PK/LDH) and monitoring the absorbance decrease of NADH (at 340 nm) as a function of time. PK converts ADP to ATP (adenosine triphosphate) by converting PEP (phosphoenolpyruvate) to pyruvate. Pyruvate is then converted to lactate by LDH by converting NADH (nicotinamide adenine dinucleotide) to NAD (oxidized nicotinamide adenine dinucleotide). The source of cardiac myosin was from bovine heart in the form of skinned myofibrils. Prior to testing small molecule agents, the bovine myofibrils were assessed for their calcium responsiveness and the calcium concentration that achieves a 50% activation of the myofibril system was chosen as the final condition for assessing the inhibitory activity of the small molecule agents. All enzymatic activity was measured in a buffered solution containing 12 mM PIPES (piperazine-N,N′-bis(2-ethanesulfonic acid), 2 mM magnesium chloride at pH 6.8 (PM12 buffer). Final assay conditions were 1 mg/mL of bovine cardiac myofibrils, 0.4 mM PK/LDH, 50 uM ATP, 0.1 mg/mL BSA (bovine serum albumin), 10 ppm antifoam, 2 mM BME, 0.5 mM NADH, and 1.5 mM PEP at the desired free calcium concentration required to achieve 50% activation of the myofibrils.
A dilution series of compound was created in DMSO such that the final desired concentration of compound would be achieved in a volume of 30 μL with a fixed DMSO concentration of 3.3% (v/v). Typically 1 μL of the dilution series were added to 384 well plate to achieve a 10 point dose response. Following the addition of 14 μL of a solution containing bovine cardiac myofibrils, PK/LDH and a solution of calcium (that achieved 50% activation), the enzymatic reaction was started with the addition of 15 μL of a solution containing ATP, PEP and NADH. The reaction progress was followed in a PerkinElmer Envision plate reader at ambient temperature using clear bottom plates. The plate reader was configured to read absorbance at 340 nm in kinetics mode for 15 minutes. Data were recorded as the slope of the absorbance response to time. The slopes of the absorbance response as a function of time were normalized to slopes on the plate containing DMSO. This normalized rate was then plotted as a function of small molecule concentration and the data was fitted to a four-parameter fit using EXCEL XLfit. The IC50 is the concentration at which fifty percent of the total response is inhibited.

In a further data set the test system is rabbit skeletal myosin. The data set is described as follows: Myosin inhibition assay (rbskMF pCa 6 IC50). The class given is biochemical. The conditions noted are these: cardiac vs rabbit skeletal myofibrils. From the text:
Myosin inhibition assay (rbskMF pCa 6 IC50 (μM))
Inhibition of the enzymatic activity of rabbit skeletal myosin associated with the release of ADP (adenosine diphosphate) at the calcium concentrate that achieves a 50% activation of the rabbit skeletal myofibril system. The procedure was the same as that of bovin cardiac myosin inhibition assay (bcMF pCa 6 IC50 (μM)) by replacing bovine cardiac myofibril with rabbit skeletal myofibril.

For data set [2], the system named is adult rat ventricular myocytes. The experiment in a line: Cardiomyocyte contractility assay. In kind it is cell-based. The conditions noted are these: 0.3 μM compound; for inhibition at 0.3 µM: Rattus norvegicus, Ventricular myocyte, fractional shortening, myocytes paced at 1 Hz, read-out: % inhibition of FS at 0.3 μM. As to the method: Cardiomyocyte Contractility Assay
Contractility of adult rat ventricular myocytes is determined by edge detection with an IonOptix contractility system. Aliquots of myocytes in Tyrode buffer (137 mM NaCl, 3.7 mM KCL, 0.5 mM MgCl2, 1.5 mM CaCl2, 4 mM HEPES, 11 mM glucose) are placed in a perfusion chamber (Series 20 RC-27NE; Warner Instruments), allowed to adhere to the coverslip, and then perfused with 37° C. Tyrode buffer. Myocytes are filed stimulated at 1 Hz and 10V. Only myocytes with clear striations, quiescent prior to pacing, with a cell length of 120-180 microns, a basal fractional shortening equal to 3-8% of the cell length, and a contraction velocity greater than 100 microns per second are used for contractility experiments. To determine the response to compounds (at 0.3 μM concentration), myocytes are first perfused for 60 seconds with Tyrodes buffer followed by 5 min of compound and a 140 second washout with Tyrodes buffer. Data is continuously recorded using IonOptix software. Contractility data is analyzed using Ionwizard software (IonOptix). For each cell, 10-20 contractility transients were averaged and compared under basal (no compound) and compound-treated conditions. Compound activity is measured by effects on fractional shortening (FS), where fractional shortening is the ratio of the peak length of the cell at contraction divided by the basal cell length normalized to 100% for an untreated cell. The % inhibition measurement is calculated by subtracting the FS value from 100%.

In data set [3] the target is T1, bovine cardiac myosin. The data set is described as follows: Myosin inhibition assay (bcMF serum pCa 6 IC50), 10% human serum. The class given is biochemical. The conditions noted are these: in the presence of 10% human serum. From the text:
Myosin Inhibition Assay (bcMF Serum pCa 6 IC50 (μM))
Inhibition of the enzymatic activity of bovine cardiac myosin associated with the release of ADP (adenosine diphosphate) at the calcium concentrate that achieves a 50% activation of the bovine cardiac myofibril system in the presence of 10% human serum. The procedure was the same as that bovin cardiac myosin inhibition assay (bcMF pCa 6 IC50 (μM)) but with the addition of 10% human serum.

For orientation: IC50 means the concentration that gives 50% inhibition. By inhibition is commonly meant how much of the control response was suppressed. For the molecule `O=c1[nH]c2c(c(=O)n1C1CCOCC1)CC(F)(F)[C@H](c1cccc(F)c1)N2` [Compound C-1, (S)-6,6-difluoro-7-(3-fluorophenyl)-3-(tetrahydro-2H-pyran-4-yl)-5,6,7,8-tetrahydropyrido[2,3-d]pyrimidine-2,4(1H,3H)-dione, reference compound], the IC50 on bovine cardiac myosin [1] (read-out: bcMF pCa 6 IC50) came to 1570 nM. Further, in the data set with rabbit skeletal myosin, the “Cardiac selectivity ratio vs rbskMF pCa 6 IC50” value was determined as 5.48. Besides, in data set [2], the “observation in cardiomyocyte contractility assay” value is reported as “Early after depolarization or EAD” and the inhibition at 0.3 µM lay within 33 to 66%. Besides, the IC50 on bovine cardiac myosin [3] worked out at 3490 nM.
Regarding `Cc1ccc(F)c([C@@H]2Nc3[nH]c(=O)n(C4CCOCC4)c(=O)c3C[C@@H]2F)c1` [Compound 3, (6S,7S)-6-fluoro-7-(2-fluoro-5-methylphenyl)-3-(tetrahydro-2H-pyran-4-yl)-5,6,7,8-tetrahydropyrido[2,3-d]pyrimidine-2, 4 (1H, 3H)-dione], the values for the IC50 at bovine cardiac myosin [1] (read-out: bcMF pCa 6 IC50), at bovine cardiac myosin [1] (read-out: bcMF pCa_6 IC50 MEAN) and on bovine cardiac myosin [3] were 1110 nM, 1110 nM and 1560 nM, respectively. Further, the “Cardiac selectivity ratio vs rbskMF pCa 6 IC50” value with rabbit skeletal myosin came to 4.51. The inhibition at 0.3 µM in data set [2] was greater than 66%.
